Measured values as given in US10815276B2, “Cell penetrating peptides and methods of making and using thereof” (Entrada Therapeutics, Inc., priority 2014, dated 2020).
Starred links: 1 amine or outer side, 2 acyl side, 3 side chain; linkers in the order of their positions; H or OH if unused. Positions of bridges follow the written chain, without caps; N, C: chain ends. Non-standard residues stand in square brackets, D forms with d. Residues, ends and D or L forms follow the SMILES beside them. Trimesoyl = O=C(c1cc(C(=O)[*:2])cc(C(=O)[*:3])c1)[*:1]; Phe(3,4-F2) = N[C@@H](Cc1ccc(F)c(F)c1)C(=O)O; Phe(4-F) = N[C@@H](Cc1ccc(F)cc1)C(=O)O; dPhe(3-F) = N[C@H](Cc1cccc(F)c1)C(=O)O; 2Nal = N[C@@H](Cc1ccc2ccccc2c1)C(=O)O; Pip = O=C(O)[C@@H]1CCCCN1; Dap = NC[C@H](N)C(=O)O; βAla = NCCC(=O)O; Sar = CNCC(=O)O

Each compound was assayed against T1, Pin1 (Homo sapiens, UniProt Q13526, S16A/Y23A) (assay: Pin1 binding by FA (FITC-labeled peptides)). Settings: FITC-labeled peptide, FA; read-out: KD.
T1 construct: The full-length human S16A/Y23A mutant Pin1 was expressed and purified from E. coli; made in house

Row | Compound | Kd [µM]
1 | CC(C)[C@@H]1NC(=O)[C@H](CCCNC(=N)N)NC(=O)[C@H](Cc2ccc3ccccc3c2)NC(=O)[C@@H]2CCCCN2C(=O)[C@@H](CC(=O)O)NC(=O)CN(C)C(=O)[C@@H]2CCCN2C(=O)c2cc3cc(c2)C(=O)NC[C@H](NC(=O)[C@@H](C)NC1=O)C(=O)N[C@@H](Cc1ccccc1)C(=O)N[C@@H](Cc1ccc2ccccc2c1)C(=O)N[C@@H](CCCNC(=N)N)C(=O)N[C@@H](CCCNC(=N)N)C(=O)N[C@@H](CCCNC(=N)N)C(=O)N[C@@H](CCCNC(=N)N)C(=O)N[C@H](C(=O)N[C@@H](CCCCN)C(N)=O)CNC3=O [Peptide 18, bicyclo[Tm-(Pro-Sar-D-Asp-Pip-Nal-Arg-Val-D-Ala)-Dap-(Phe-Nal-Arg-Arg-Arg-Arg-Dap)]-Lys] (P[Sar][dD][Pip][2Nal]RV[dA][Dap]F[2Nal]RRRR[Dap]K-NH2; linker N-9-16 via Trimesoyl; C-terminus assumed) | 1.75 ± 0.24
2 | C[C@H]1NC(=O)CCNC(=O)[C@H](CCCNC(=N)N)NC(=O)[C@H](Cc2ccc3ccccc3c2)NC(=O)[C@@H]2CCCCN2C(=O)[C@@H](CC(=O)O)NC(=O)CN(C)C(=O)[C@@H]2CCCN2C(=O)c2cc3cc(c2)C(=O)NC[C@H](NC1=O)C(=O)N[C@@H](Cc1ccccc1)C(=O)N[C@@H](Cc1ccc2ccccc2c1)C(=O)N[C@@H](CCCNC(=N)N)C(=O)N[C@@H](CCCNC(=N)N)C(=O)N[C@@H](CCCNC(=N)N)C(=O)N[C@@H](CCCNC(=N)N)C(=O)N[C@H](C(=O)N[C@@H](CCCCN)C(N)=O)CNC3=O [Peptide 14, bicyclo[Tm-(Pro-Sar-D-Asp-Pip-Nal-Arg-β-Ala-D-Ala)-Dap-(Phe-Nal-Arg-Arg-Arg-Arg-Dap)]-Lys] (P[Sar][dD][Pip][2Nal]R[βAla][dA][Dap]F[2Nal]RRRR[Dap]K-NH2; linker N-9-16 via Trimesoyl; C-terminus assumed) | 1.75 ± 0.18
3 | C[C@@H]1NC(=O)[C@H](CCCNC(=N)N)NC(=O)[C@H](Cc2ccc3ccccc3c2)NC(=O)[C@@H]2CCCCN2C(=O)[C@@H]([C@H](C)O)NC(=O)[C@H](Cc2ccc(F)c(F)c2)NC(=O)[C@@H](Cc2ccccc2)NC(=O)c2cc3cc(c2)C(=O)NC[C@H](NC(=O)[C@@H](Cc2ccccc2)NC1=O)C(=O)N[C@@H](Cc1ccccc1)C(=O)N[C@@H](Cc1ccc2ccccc2c1)C(=O)N[C@@H](CCCNC(=N)N)C(=O)N[C@@H](CCCNC(=N)N)C(=O)N[C@@H](CCCNC(=N)N)C(=O)N[C@@H](CCCNC(=N)N)C(=O)N[C@H](C(=O)N[C@@H](CCCCN)C(N)=O)CNC3=O [Peptide 29, bicyclo[Tm-(D-Phe-3,4-diFPhe-D-Thr-Pip-Nal-Arg-Ala-D-Phe)-Dap-(Phe-Nal-Arg-Arg-Arg-Arg-Dap)]-Lys] ([dF][Phe(3,4-F2)][dT][Pip][2Nal]RA[dF][Dap]F[2Nal]RRRR[Dap]K-NH2; linker N-9-16 via Trimesoyl; C-terminus assumed) | 0.41 ± 0.1
4 | C[C@@H]1NC(=O)[C@H](CCCNC(=N)N)NC(=O)[C@H](Cc2ccc3ccccc3c2)NC(=O)[C@@H]2CCCCN2C(=O)[C@@H](CC(=O)O)NC(=O)CN(C)C(=O)[C@@H]2CCCN2C(=O)c2cc3cc(c2)C(=O)NC[C@@H](C(=O)N[C@@H](CCCCN)C(N)=O)NC(=O)[C@H](CCCNC(=N)N)NC(=O)[C@H](CCCNC(=N)N)NC(=O)[C@H](CCCNC(=N)N)NC(=O)[C@H](CCCNC(=N)N)NC(=O)[C@H](Cc2ccc4ccccc4c2)NC(=O)[C@H](Cc2ccccc2)NC(=O)[C@H](CNC3=O)NC(=O)CCNC1=O [Peptide 13, bicyclo[Tm-(Pro-Sar-D-Asp-Pip-Nal-Arg-Ala-β-Ala)-Dap-(Phe-Nal-Arg-Arg-Arg-Arg-Dap)]-Lys] (P[Sar][dD][Pip][2Nal]RA[βAla][Dap]F[2Nal]RRRR[Dap]K-NH2; linker N-9-16 via Trimesoyl; C-terminus assumed) | 2.08 ± 0.31
5 | C[C@H](O)[C@H]1NC(=O)[C@H](Cc2ccc(F)cc2)NC(=O)[C@@H](Cc2ccccc2)NC(=O)c2cc3cc(c2)C(=O)NC[C@H](NC(=O)[C@@H](C)NC(=O)CNC(=O)[C@H](CCCNC(=N)N)NC(=O)[C@H](Cc2ccc4ccccc4c2)NC(=O)[C@@H]2CCCCN2C1=O)C(=O)N[C@@H](Cc1ccccc1)C(=O)N[C@@H](Cc1ccc2ccccc2c1)C(=O)N[C@@H](CCCNC(=N)N)C(=O)N[C@@H](CCCNC(=N)N)C(=O)N[C@@H](CCCNC(=N)N)C(=O)N[C@@H](CCCNC(=N)N)C(=O)N[C@H](C(=O)N[C@@H](CCCCN)C(N)=O)CNC3=O [Peptide 26, bicyclo[Tm-(D-Phe-4-Fpa-D-Thr-Pip-Nal-Arg-Gly-D-Ala)-Dap-(Phe-Nal-Arg-Arg-Arg-Arg-Dap)]-Lys] ([dF][Phe(4-F)][dT][Pip][2Nal]RG[dA][Dap]F[2Nal]RRRR[Dap]K-NH2; linker N-9-16 via Trimesoyl; C-terminus assumed) | 0.74 ± 0.11
6 | C[C@@H]1NC(=O)[C@H](CCCNC(=N)N)NC(=O)[C@H](Cc2ccc3ccccc3c2)NC(=O)[C@@H]2CCCCN2C(=O)[C@@H](CC(=O)O)NC(=O)CN(C)C(=O)[C@@H]2CCCN2C(=O)c2cc3cc(c2)C(=O)NC[C@H](NC(=O)[C@@H](C)NC(=O)[C@@H](C)NC1=O)C(=O)N[C@@H](Cc1ccccc1)C(=O)N[C@@H](Cc1ccc2ccccc2c1)C(=O)N[C@@H](CCCNC(=N)N)C(=O)N[C@@H](CCCNC(=N)N)C(=O)N[C@@H](CCCNC(=N)N)C(=O)N[C@@H](CCCNC(=N)N)C(=O)N[C@H](C(=O)N[C@@H](CCCCN)C(N)=O)CNC3=O [Peptide 16, bicyclo[Tm-(Pro-Sar-D-Asp-Pip-Nal-Arg-Ala-D-Ala-D-Ala)-Dap-(Phe-Nal-Arg-Arg-Arg-Arg-Dap)]-Lys] (P[Sar][dD][Pip][2Nal]RA[dA][dA][Dap]F[2Nal]RRRR[Dap]K-NH2; linker N-10-17 via Trimesoyl; C-terminus assumed) | 2.49 ± 0.57
7 | C[C@@H]1NC(=O)[C@H](CCCNC(=N)N)NC(=O)[C@H](Cc2ccc3ccccc3c2)NC(=O)[C@@H]2CCCCN2C(=O)[C@@H]([C@H](C)O)NC(=O)[C@H](Cc2ccc(F)cc2)NC(=O)[C@@H](Cc2ccccc2)NC(=O)c2cc3cc(c2)C(=O)NC[C@H](NC(=O)[C@@H](Cc2ccccc2)NC1=O)C(=O)N[C@@H](CCCNC(=N)N)C(=O)N[C@@H](CCCNC(=N)N)C(=O)N[C@@H](Cc1ccc2ccccc2c1)C(=O)N[C@@H](Cc1ccccc1)C(=O)N[C@@H](CCCNC(=N)N)C(=O)N[C@@H](CCCNC(=N)N)C(=O)N[C@H](C(=O)N[C@@H](CCCCN)C(N)=O)CNC3=O [Peptide 43, bicyclo[Tm-(D-Phe-Fpa-D-Thr-Pip-Nal-Arg-Ala-D-Phe)-Dap-(Arg-Arg-Nal-Phe-Arg-Arg-Dap)]-Lys] ([dF][Phe(4-F)][dT][Pip][2Nal]RA[dF][Dap]RR[2Nal]FRR[Dap]K-NH2; linker N-9-16 via Trimesoyl; C-terminus assumed) | 1.38 ± 0.16

More lines, in order of falling Kd, values ahead:

Row | Kd [µM] | Compound
8 | 4.6 ± 1.42 | CN1CC(=O)N[C@H](CC(=O)O)C(=O)N2CCCC[C@H]2C(=O)N[C@@H](Cc2ccc3ccccc3c2)C(=O)N[C@@H](CCCNC(=N)N)C(=O)N[C@@H](CCCNC(=N)N)C(=O)N[C@H](CC(=O)O)C(=O)N[C@H]2CNC(=O)c3cc(cc(c3)C(=O)N3CCC[C@H]3C1=O)C(=O)NC[C@@H](C(=O)N[C@@H](CCCCN)C(N)=O)NC(=O)[C@H](CCCNC(=N)N)NC(=O)[C@H](CCCNC(=N)N)NC(=O)[C@H](CCCNC(=N)N)NC(=O)[C@H](CCCNC(=N)N)NC(=O)[C@H](Cc1ccc3ccccc3c1)NC(=O)[C@H](Cc1ccccc1)NC2=O [Peptide 25, bicyclo[Tm-(Pro-Sar-D-Asp-Pip-Nal-Arg-Arg-D-Asp)-Dap-(Phe-Nal-Arg-Arg-Arg-Arg-Dap)]-Lys] (P[Sar][dD][Pip][2Nal]RR[dD][Dap]F[2Nal]RRRR[Dap]K-NH2; linker N-9-16 via Trimesoyl; C-terminus assumed)
9 | 0.46 ± 0.17 | bicyclo[Tm-(D-4-Phe-Fpa-D-Ile-Pip-Nal-Arg-Ala-D-Phe)-Dap-(Phe-Nal-Arg-Arg-Arg-Arg-Dap)]-Lys [Peptide 39]
10 | 0.39 ± 0.05 | C[C@@H]1NC(=O)[C@H](CCCNC(=N)N)NC(=O)[C@H](Cc2ccc3ccccc3c2)NC(=O)[C@@H]2CCCCN2C(=O)[C@@H]([C@H](C)O)NC(=O)[C@H](Cc2ccc(F)cc2)NC(=O)[C@@H](Cc2cccc(F)c2)NC(=O)c2cc3cc(c2)C(=O)NC[C@H](NC(=O)[C@@H](Cc2ccccc2)NC1=O)C(=O)N[C@@H](Cc1ccccc1)C(=O)N[C@@H](Cc1ccc2ccccc2c1)C(=O)N[C@@H](CCCNC(=N)N)C(=O)N[C@@H](CCCNC(=N)N)C(=O)N[C@@H](CCCNC(=N)N)C(=O)N[C@@H](CCCNC(=N)N)C(=O)N[C@H](C(=O)N[C@@H](CCCCN)C(N)=O)CNC3=O [Peptide 36, bicyclo[Tm-(D-3-Fpa-Fpa-D-Thr-Pip-Nal-Arg-Ala-D-Phe)-Dap-(Phe-Nal-Arg-Arg-Arg-Arg-Dap)]-Lys] ([dPhe(3-F)][Phe(4-F)][dT][Pip][2Nal]RA[dF][Dap]F[2Nal]RRRR[Dap]K-NH2; linker N-9-16 via Trimesoyl; C-terminus assumed)
11 | 0.27 | C[C@@H]1NC(=O)[C@H](CCCNC(=N)N)NC(=O)[C@H](Cc2ccc3ccccc3c2)NC(=O)[C@@H]2CCCCN2C(=O)[C@@H]([C@H](C)O)NC(=O)[C@H](Cc2ccc(F)cc2)NC(=O)[C@@H](Cc2ccccc2)NC(=O)c2cc3cc(c2)C(=O)NC[C@H](NC(=O)[C@@H](Cc2ccccc2)NC1=O)C(=O)N[C@@H](Cc1ccccc1)C(=O)N[C@@H](Cc1ccc2ccccc2c1)C(=O)N[C@@H](CCCNC(=N)N)C(=O)N[C@@H](CCCNC(=N)N)C(=O)N[C@@H](CCCNC(=N)N)C(=O)N[C@@H](CCCNC(=N)N)C(=O)N[C@H](C(=O)N[C@@H](CCCCN)C(N)=O)CNC3=O [Peptide 27, bicyclo[Tm-(D-Phe-4-Fpa-D-Thr-Pip-Nal-Arg-Ala-D-Phe)-Dap-(Phe-Nal-Arg-Arg-Arg-Arg-Dap)]-Lys] ([dF][Phe(4-F)][dT][Pip][2Nal]RA[dF][Dap]F[2Nal]RRRR[Dap]K-NH2; linker N-9-16 via Trimesoyl; C-terminus assumed)

Same assay, conditions: peptide 22 vs 3; peptide 27 vs 4

Row | Compound | Improvement of Pin1 binding by D-Phe for D-Ala vs parent peptide [fold]
12 | C[C@@H]1NC(=O)[C@H](CCCNC(=N)N)NC(=O)[C@H](Cc2ccc3ccccc3c2)NC(=O)[C@@H]2CCCCN2C(=O)[C@@H]([C@H](C)O)NC(=O)[C@H](Cc2ccc(F)cc2)NC(=O)[C@@H](Cc2ccccc2)NC(=O)c2cc3cc(c2)C(=O)NC[C@H](NC(=O)[C@@H](Cc2ccccc2)NC1=O)C(=O)N[C@@H](Cc1ccccc1)C(=O)N[C@@H](Cc1ccc2ccccc2c1)C(=O)N[C@@H](CCCNC(=N)N)C(=O)N[C@@H](CCCNC(=N)N)C(=O)N[C@@H](CCCNC(=N)N)C(=O)N[C@@H](CCCNC(=N)N)C(=O)N[C@H](C(=O)N[C@@H](CCCCN)C(N)=O)CNC3=O [Peptide 27, bicyclo[Tm-(D-Phe-4-Fpa-D-Thr-Pip-Nal-Arg-Ala-D-Phe)-Dap-(Phe-Nal-Arg-Arg-Arg-Arg-Dap)]-Lys] ([dF][Phe(4-F)][dT][Pip][2Nal]RA[dF][Dap]F[2Nal]RRRR[Dap]K-NH2; linker N-9-16 via Trimesoyl; C-terminus assumed) | ~2
